Measurements from patent US20220017478A1, “2-BENZOYLAMINOBENZAMIDE DERIVATIVES AS BCL-3 INHIBITORS” (University College Cardiff Consultants Limited, priority 2013, published 2022).
Entries after “also recorded” stand apart in the source; their conditions may differ. Where two headings read alike, the source gives them in different places.

Columns and labels:
[1] = tested on: MDA-MB-231 cells overexpressing Bcl-3; test: Boyden chamber cell motility assay; format: cell-based, human; details: for IC50: Homo sapiens
Procedure: The migratory or invasive capacity of human mammary cancer cell lines was assessed by the Boyden chamber assay. Cells were seeded in low serum media in a chamber with porous membrane (transparent polyethylene terephthalate (PET) membranes with 8 μm pores) as a solid support for motility assays or with a porous membrane coated with Matrigel Basement Membrane Matrix (BD BioCoat Growth factor reduced invasion chambers) for invasion assay. The cell insert was placed into a well with complete growth media, therefore cells are stimulated by a serum gradient to migrate or invade across the membrane through pores.
Total of 750 μl of complete growth media containing 10% of serum was added to appropriate wells of a 24 well cell culture insert companion plate (BD Biosciences, Oxford, UK). A cell culture insert (BD Biosciences, Oxford, UK) was then carefully placed into each well of the insert companion plate using tweezers. Cells were detached from tissue culture plates using 0.25% w/v Trypsin/EDTA (Invitrogen) and centrifuged at 13000 rpm for 5 min. Cells were washed twice in serum free media by resuspension and centrifugation. The appropriate number of cells (2×10^5 cells/ml for MDA-MB-231 cells) was resuspended in normal growth media containing only 0.10% serum. 350 μl of the cell suspension was added to the appropriate upper chambers of the cell culture inserts and plates were incubated for 24 hrs at 37° C. and 5% CO2.
After incubation, cells on membranes were fixed by replacing the media in the top and bottom sections of the chamber with 70% ice-cold ethanol (Fisher Scientific). Plates were incubated at −20° C. for at least an hour. After fixation, inserts were immersed in a tap water using tweezers to ensure all ethanol was removed. A moistened cotton wool bud was then used to mechanically remove all cells fixed on the upper side of the membranes. Cells were stained by individually immersing the inserts into filtered Harris' Haematoxylin (Sigma, Dorset, UK) for 1 min. Following this, inserts were washed in a beaker of tap water to remove the dye and immersed in 0.5% filtered Eosin (Sigma, Dorset, UK) for 2 min. Stained inserts were then washed again in a tap water.
Glycerol Gelatin (Sigma, Dorset, UK) was heated in a beaker of boiling water and once liquefied, a drop was placed onto an appropriately labelled microscope slide (R. A. Lamb, Loughborough, UK). Membranes were cut out of the insert and transferred onto the corresponding slide with tweezers. Glycerol Gelatin was added to the top of the membranes and a cover slip was placed on the slide under firm pressure. Mounted slides were left to air dry before being analyzed.
We therefore generated a dose response curve to determine an IC50 in this assay. MDA-MB-231 cells overexpressing Bcl-3 were cultivated with Compound 1a and DMSO control over a range of molarities for 24 hrs before being seeded onto Boyden migration chambers. The constant number of live cells present during this assay across samples was monitored by cell count.
Therefore we wanted to establish whether designed analogues have similar or improved ability to suppress cell migration. MDA-MB-231 Bcl-3 over-expressing cells were cultivated with selected analogues (1f, 2a, 2c, 3a) and DMSO control over a range of molarities for 24 hrs before being seeded onto the Boyden motility chambers. Migrated cells were visualized and counted after 24 hrs. The dose response curves were generated using GraphPad software (FIG. 9). The constant number of live cells present during this assay across samples was monitored by cell count.

NF-κB activity = test: NF-κB luciferase reporter assay in MDA-MB-231 cells overexpressing Bcl-3; format: cell-based, human; details: for effect on NF-κB activity: 1 μM, 24 hrs, MDA-MB-231 Bcl-3 over-expressing cells, vs DMSO control / Compound 1a; for IC50: Homo sapiens
Procedure: For NF-κB luciferase assays, cells were seeded into clear bottom black 96-well plates (Corning Inc., Lowell, US) in antibiotic free culture media in appropriate density. After 24 hrs, cells were transfected with 10 ng of 3×κB luciferase plasmid and 10 ng of pcDNA3.1-Lacl plasmid per well. Empty pcDNA3.1 plasmid was also included to normalize the total weight of DNA transfected to 100 ng. For positive and negative controls respectively, 10 ng of pGL3control or pGL3basic were transfected in place of 3×KB luciferase plasmid. Transfection was carried out using Lipofectamine LTX reagents (Invitrogen, Paisley, UK).
After 48 hrs post-transfection with luciferase reporter plasmid, the media was aspirated and cells were lyzed using 50 μl/well of Glo-lysis buffer (Promega, Southampton, UK). The plate was left on a rocker for 20 min to facilitate complete cell lysis. Then, 20 μl of lysate from each well was removed and transferred into a new clear bottom black well plate for measuring LacZ activity as a transfection efficiency control and followed by addition of 20 ul/well of Beta-Glo substrate (Promega, Southampton, UK) and cultivation at room temperature for at least 20 min. Subsequently, 30 μl/well of Bright-Glo luciferase substrate (Promega, Southampton, UK) was added to the original plate and asses immediately for luminescence activity. The luminescence produced from either reaction was read using a Flurostar Optima plate reader (BMG tabtech, Bucks, UK).
The effect of Compound 1a on NF-κB activity was determined by NF-κB luciferase assay in MDA-MB-231 and HEK-293 cells overexpressing Bcl-3 and HEK-293 cells overexpressing p52. Cells were cultivated with Compound 1a over a range of molarities for 24 hrs before being transfected with NF-κB luciferase reporter plasmid for 48 hrs and analyzed for NF-κB activity.
The effect of selected analogues on NF-κB activity was determined by NF-KB luciferase assay in MDA-MB-231 cells. MDA-MB-231 Bcl-3 over-expressing cells were cultivated with compounds from series 1-3 at 1 μM concentration for 24 hrs before being transfected with NF-κB luciferase reporter plasmid for 48 hrs together with controls and analyzed for NF-κB activity.
Based on the results for the series of analogues, we have established dose response curve for selected analogues from series 1 (If), from series 2 (2a and 2c) and from series 3 (3a) over a range of molarities. MDA-MB-231 Bcl-3 WT cells were cultivated with selected compounds from series 1-3 over a range of molarities for 24 hrs before being transfected with NF-κB luciferase reporter plasmid for 48 hrs together with controls and analyzed for NF-κB activity (FIG. 7).

[2] = MDA-MB-231, Table 3, read-out: Cell motility assay (μM) IC50
[3] = MDA-MB-231 overexpressing Bcl-3, 24 hrs pre-treatment, 24 hrs migration, read-out: IC50 cell motility (Boyden chamber)
[4] = MDA-MB-231 overexpressing Bcl-3, 24 hrs then reporter 48 hrs, read-out: IC50 NF-κB activity
[5] = Table 3, MDA-MB-231, read-out: NF-κB assay (μM) IC50
[6] = MDA-MB-231 Bcl-3 WT, 24 hrs then reporter 48 hrs, read-out: IC50 NF-κB activity

SMILES	IC50 [1, 2] [µM]	IC50 [1, 3] [µM]	migration ability ([1]; MDA-MB-231 cells, 10 μM)	effect on NF-κB activity (NF-κB activity)	IC50 (NF-κB activity; [4]) [µM]	IC50 (NF-κB activity; [5]) [µM]	cell migration ([1]; 10 nM concentration)	IC50 ([1]; MDA-MB-231 overexpressing Bcl-3, read-out: IC50 cell motility (Boyden chamber)) [µM]	IC50 (NF-κB activity; [6]) [µM]
O=C(Nc1ccccc1C(=O)NCCN1CCOCC1)c1ccccc1F [Compound 1a, 2-[(2-fluorobenzoyl)amino]-N-(2-morpholin-4-ylethyl)benzamide]	0.31	0.31	significantly suppressed migration ability	significant decrease; also recorded: most potent suppression of NF-κB activity	0.0494	0.0454			
COc1ccc(C(=O)Nc2ccccc2C(=O)NCCN2CCOCC2)cc1 [Compound 1f, 2-[(4-methoxybenzoyl)amino]-N-(2-morpholin-4-ylethyl)benzamide]	0.0289	0.0289		significant decrease	0.00697	0.00697	below 50%		
O=C(Nc1ccccc1C(=O)NCCCN1CCOCC1)c1ccccc1F [Compound 2a]	1.33			significantly decreased NF-κB activity; also recorded: comparable activity with Compound 1a		2.5		1.33	2.5
COc1cccc(C(=O)NCCN2CCOCC2)c1NC(=O)c1ccccc1F [Compound 3a, 2-[(2-fluorobenzoyl)amino]-3-methoxy-N-(2-morpholin-4-ylethyl) benzamide]	0.9	0.9		comparable effect on NF-κB activity with Compound 1a		1.07			1.07
